US12257246B2, “Composition of 2,4,6-trifluoro-n-[6-(1-methyl-piperidin-4-carbonyl)-pyridin-2-yl[-benzamide” (CoLucid Pharmaceuticals, Inc., priority 2009, dated 2025)

How the values were obtained:
[1] = tested on: neuronal protein extravasation; test: Protein extravasation assay (trigeminal ganglion stimulation); assay type: in vivo, rats or guinea pigs; conditions: intravenous
Description: Harlan Sprague-Dawley rats (225-325 g) or guinea pigs from Charles River Laboratories (225-325 g) were anesthetized with sodium pentobarbital intraperitoneally (65 mg/kg or 45 mg/kg respectively) and placed in a stereotaxic frame (David Kopf Instruments) with the incisor bar set at −3.5 mm for rats or −4.0 mm for guinea pigs. Following a midline sagital scalp incision, two pairs of bilateral holes were drilled through the skull (6 mm posterially, 2.0 and 4.0 mm laterally in rats; 4 mm posteriorly and 3.2 and 5.2 mm laterally in guinea pigs, all coordinates referenced to bregma). Pairs of stainless steel stimulating electrodes, insulated except at the ends (Rhodes Medical Systems, Inc.), were lowered through the holes in both hemispheres to a depth of 9 mm (rats) or 10.5 mm (guinea pigs) from dura. […]
A fluorescence microscope (Zeiss) equipped with a grating monchromator and a spectrophotometer was used to quantify the amount of Evans Blue dye in each sample. An excitation wavelength of approximately 535 nm was utilized and the emission intensity at 600 nm was determined. […] This facilitated the computer-controlled movement of the stage with fluorescence measurements at 25 points (500 μm steps) on each dural sample. The mean and standard deviation of the measurements were determined by the computer. […]

[2] = tested on: other 5-HT1 receptor subtypes (5-HT1A, 5-HT1B, 5-HT1D, 5-HT1E); conditions: cited from earlier work

Structure (SMILES): CN1CCC(C(=O)c2cccc(NC(=O)c3c(F)cc(F)cc3F)n2)CC1 [Compound I, 2,4,6-trifluoro-N-[6-(1-methyl-piperidin-4-ylcarbonyl)-pyridin-2-yl]-benzamide]
- inhibition of neuronal protein extravasation [1]: significantly inhibit neuronal protein extravasation
- affinity higher for 5-HT1F receptors than for other 5-HT1 receptor subtypes [2]: more than 450 fold
